The text below walks through data of ChEMBL document CHEMBL3352112, “Exploiting the therapeutic potential of 8-β-d-glucopyranosylgenistein: synthesis, antidiabetic activity, and molecular interaction with islet amyloid polypeptide and amyloid β-peptide (1-42)” (J Med Chem, 2014).

The experiment can be described thus: Cytotoxicity against […] HII4E cells after 24 hrs by MTT cell viability assay. It counts as cell-based. In general terms: Tetrazolium assays rely on reduction of a dye to a coloured formazan, in cell work by metabolically active cells.

Values after ≈ are worked out from the molar mass of the structure shown.

Broadly, the IC50 is the concentration needed to halve the response being measured. On to `O=C(N[C@H](CO)[C@H](O)c1ccc([N+](=O)[O-])cc1)C(Cl)Cl` [CHLORAMPHENICOL], for which it took 143 µg/mL (≈ 443 µM) to reach half-maximal inhibition (IC50).
